ChEMBL document CHEMBL5537147, “Development of membrane-targeting TPP+-chloramphenicol conjugates to combat methicillin-resistant staphylococcus aureus (MRSA) infections” (Eur J Med Chem, 2024)

Tests used:
[1] = Cytotoxicity against human L02 cells assessed as inhibition of cell growth incubated for 24 hrs by MTT assay; assay type: toxicity, cell-based
Pseudomonas aeruginosa [2] = experiment: Antibacterial activity against Pseudomonas aeruginosa 535 assessed as inhibition of bacterial growth incubated for 16 to 18 hrs by CLSI based two-fold serial dilution method; assay type: functional; settings: time 16-18 hrs
Pseudomonas aeruginosa [3] = experiment: Antibacterial activity against Pseudomonas aeruginosa 408 assessed as inhibition of bacterial growth incubated for 16 to 18 hrs by CLSI based two-fold serial dilution method; assay type: functional; settings: time 16-18 hrs
Acinetobacter baumannii [4] = experiment: Antibacterial activity against Acinetobacter baumannii 1310 assessed as inhibition of bacterial growth incubated for 16 to 18 hrs by CLSI based two-fold serial dilution method; assay type: functional; settings: time 16-18 hrs
Staphylococcus aureus [5] = experiment: Antibacterial activity against methicillin-resistant Staphylococcus aureus 3390 assessed as inhibition of bacterial growth incubated for 16 to 18 hrs by CLSI based two-fold serial dilution method; assay type: functional; settings: time 16-18 hrs
Staphylococcus aureus [6] = experiment: Antibacterial activity against methicillin-resistant Staphylococcus aureus USA300 assessed as inhibition of bacterial growth incubated for 16 to 18 hrs by CLSI based two-fold serial dilution method; assay type: functional; settings: time 16-18 hrs
Staphylococcus aureus [7] = experiment: Antibacterial activity against methicillin-resistant Staphylococcus aureus 3392 assessed as inhibition of bacterial growth incubated for 16 to 18 hrs by CLSI based two-fold serial dilution method; assay type: functional; settings: time 16-18 hrs
Staphylococcus aureus [8] = experiment: Antibacterial activity against methicillin-resistant Staphylococcus aureus 330041 assessed as inhibition of bacterial growth incubated for 16 to 18 hrs by CLSI based two-fold serial dilution method; assay type: functional; settings: time 16-18 hrs
Acinetobacter baumannii [9] = experiment: Antibacterial activity against Acinetobacter baumannii 1309 assessed as inhibition of bacterial growth incubated for 16 to 18 hrs by CLSI based two-fold serial dilution method; assay type: functional; settings: time 16-18 hrs

Compound | IC50 at 24 h [1] [µg/mL] | MIC (Pseudomonas aeruginosa [2]) [µg/mL] | MIC (Pseudomonas aeruginosa [3]) [µg/mL] | MIC (Acinetobacter baumannii [4]) [µg/mL] | MIC (Staphylococcus aureus [5]) [µg/mL] | MIC (Staphylococcus aureus [6]) [µg/mL] | MIC (Staphylococcus aureus [7]) [µg/mL] | MIC (Staphylococcus aureus [8]) [µg/mL] | MIC (Acinetobacter baumannii [9]) [µg/mL]
Br.Cc1ccc([P+](CCCCCCCCCC(=O)OC[C@H](NC(=O)C(Cl)Cl)[C@H](O)c2ccc([N+](=O)[O-])cc2)(c2ccc(C)cc2)c2ccc(C)cc2)cc1 | 14.7 | > 64 | > 64 | > 64 | 0.5 | 0.5 | 0.5 | 0.5 | > 64
O=C(O)CC[P+](c1ccccc1)(c1ccccc1)c1ccccc1.[Br-] | > 64 | > 64 | > 64 | > 64 | > 64 | > 64 | > 64 | > 64 | > 64
O=C(O)CCCCCCCCC[P+](c1ccc(Cl)cc1)(c1ccc(Cl)cc1)c1ccc(Cl)cc1.[Br-] | 30.8 | > 64 | > 64 | > 64 | > 64 | > 64 | > 64 | > 64 | > 64
COc1ccc([P+](CCCCCCCCCC(=O)O)(c2ccc(OC)cc2)c2ccc(OC)cc2)cc1.[Br-] | 13.5 | > 64 | > 64 | 64 | 16 | 32 | 32 | 32 | 64
Br.CN(C)c1ccc([P+](CCCCCCCCCC(=O)OC[C@H](NC(=O)C(Cl)Cl)[C@H](O)c2ccc([N+](=O)[O-])cc2)(c2ccc(N(C)C)cc2)c2ccc(N(C)C)cc2)cc1 | 12.4 | 16 | 4 | 32 | 1 | 1 | 1 | 1 | 16
Br.O=C(CCCCCCCCC[P+](c1ccccc1)(c1ccccc1)c1ccccc1)O[C@H](c1ccc([N+](=O)[O-])cc1)[C@H](CO)NC(=O)C(Cl)Cl | < 32 | > 64 | > 64 | > 64 | 1 | 1 | 2 | 1 | > 64
O=C(O)CCCCC[P+](c1ccccc1)(c1ccccc1)c1ccccc1.[Br-] | > 64 | > 64 | > 64 | > 64 | > 64 | > 64 | > 64 | > 64 | > 64
O=C(O)CCCCCCC[P+](c1ccccc1)(c1ccccc1)c1ccccc1.[Br-] | > 64 | > 64 | > 64 | > 64 | > 64 | > 64 | > 64 | > 64 | > 64
Br.O=C(CCCCC[P+](c1ccccc1)(c1ccccc1)c1ccccc1)OC[C@H](NC(=O)C(Cl)Cl)[C@H](O)c1ccc([N+](=O)[O-])cc1 | > 64 | > 64 | > 64 | > 64 | 16 | 8 | 8 | 16 | > 64
O=C(O)CCCCCCCCC[P+](c1cccc(F)c1)(c1cccc(F)c1)c1cccc(F)c1.[Br-] | > 64 | > 64 | > 64 | > 64 | > 64 | > 64 | > 64 | > 64 | > 64
Br.O=C(CCCC[P+](c1ccccc1)(c1ccccc1)c1ccccc1)OC[C@H](NC(=O)C(Cl)Cl)[C@H](O)c1ccc([N+](=O)[O-])cc1 | > 64 | > 64 | > 64 | > 64 | 8 | 8 | 8 | 16 | > 64
Cc1ccc([P+](CCCCCCCCCC(=O)O)(c2ccc(C)cc2)c2ccc(C)cc2)cc1.[Br-] | 23.1 | > 64 | > 64 | > 64 | > 64 | > 64 | > 64 | > 64 | > 64
O=C(O)CCCCCCCCCCC[P+](c1ccccc1)(c1ccccc1)c1ccccc1.[Br-] | > 64 | > 64 | > 64 | > 64 | > 64 | > 64 | > 64 | > 64 | > 64
COc1cccc([P+](CCCCCCCCCC(=O)O)(c2cccc(OC)c2)c2cccc(OC)c2)c1.[Br-] | 15.4 | > 64 | 64 | > 64 | 32 | 32 | 16 | 32 | 64
Br.COc1ccc([P+](CCCCCCCCCC(=O)OC[C@H](NC(=O)C(Cl)Cl)[C@H](O)c2ccc([N+](=O)[O-])cc2)(c2ccc(OC)cc2)c2ccc(OC)cc2)cc1 | 23.5 | > 64 | > 64 | > 64 | 2 | 2 | 2 | 1 | > 64
O=C(O)CCC[P+](c1ccccc1)(c1ccccc1)c1ccccc1.[Br-] | > 64 | > 64 | > 64 | > 64 | > 64 | > 64 | > 64 | > 64 | > 64
O=C(O)CCCCCn1cc(C[P+](c2ccc(F)cc2)(c2ccc(F)cc2)c2ccc(F)cc2)nn1.[Br-] | > 64 | > 64 | > 64 | > 64 | > 64 | > 64 | > 64 | > 64 | > 64
Br.O=C(CCCCCn1cc(C[P+](c2ccc(F)cc2)(c2ccc(F)cc2)c2ccc(F)cc2)nn1)OC[C@H](NC(=O)C(Cl)Cl)[C@H](O)c1ccc([N+](=O)[O-])cc1 | > 64 | > 64 | > 64 | > 64 | 16 | 16 | 16 | 16 | > 64
O=C(O)CCCCCCCCC[P+](c1ccc(C(F)(F)F)cc1)(c1ccc(C(F)(F)F)cc1)c1ccc(C(F)(F)F)cc1.[Br-] | > 64 | > 64 | > 64 | > 64 | > 64 | > 64 | > 64 | > 64 | > 64
Br.O=C(CCCCCCCCC[P+](c1ccc(Cl)cc1)(c1ccc(Cl)cc1)c1ccc(Cl)cc1)OC[C@H](NC(=O)C(Cl)Cl)[C@H](O)c1ccc([N+](=O)[O-])cc1 | 16.4 | > 64 | > 64 | > 64 | 0.5 | 0.5 | 0.5 | 0.5 | > 64
O=C(O)c1cn(C2CC2)c2cc(N3CCNCC3)c(F)cc2c1=O [CIPROFLOXACIN] | > 64 | – | – | – | – | – | – | – | –
